Structures can show the parent of a compound that is named as a salt.

T1 sequence (P08514 32-887 limits assumed): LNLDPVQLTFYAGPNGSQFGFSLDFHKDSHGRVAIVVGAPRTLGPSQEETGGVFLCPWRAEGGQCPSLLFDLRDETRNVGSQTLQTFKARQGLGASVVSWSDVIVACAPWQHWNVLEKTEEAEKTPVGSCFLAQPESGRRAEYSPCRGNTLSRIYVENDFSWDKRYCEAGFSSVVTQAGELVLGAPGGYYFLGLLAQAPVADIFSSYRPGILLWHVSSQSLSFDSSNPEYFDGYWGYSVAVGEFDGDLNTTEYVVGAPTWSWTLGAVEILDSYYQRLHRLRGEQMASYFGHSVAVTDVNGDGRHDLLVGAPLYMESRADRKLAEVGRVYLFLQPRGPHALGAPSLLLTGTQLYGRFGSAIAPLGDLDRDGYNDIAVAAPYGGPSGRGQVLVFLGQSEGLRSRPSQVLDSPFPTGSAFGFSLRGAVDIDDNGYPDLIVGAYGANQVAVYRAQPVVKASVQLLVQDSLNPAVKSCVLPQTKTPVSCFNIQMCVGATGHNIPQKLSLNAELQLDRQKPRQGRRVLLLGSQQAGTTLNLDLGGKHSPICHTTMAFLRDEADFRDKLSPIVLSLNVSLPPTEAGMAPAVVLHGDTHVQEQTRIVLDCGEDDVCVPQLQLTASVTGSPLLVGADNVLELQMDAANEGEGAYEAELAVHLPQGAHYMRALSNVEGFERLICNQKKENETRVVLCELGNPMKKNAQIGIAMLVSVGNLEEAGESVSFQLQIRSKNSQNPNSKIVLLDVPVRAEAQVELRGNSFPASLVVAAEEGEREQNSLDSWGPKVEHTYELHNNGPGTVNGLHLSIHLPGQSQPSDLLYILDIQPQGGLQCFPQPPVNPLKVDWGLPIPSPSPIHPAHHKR
T1 sequence (P08514 891-1039 limits assumed): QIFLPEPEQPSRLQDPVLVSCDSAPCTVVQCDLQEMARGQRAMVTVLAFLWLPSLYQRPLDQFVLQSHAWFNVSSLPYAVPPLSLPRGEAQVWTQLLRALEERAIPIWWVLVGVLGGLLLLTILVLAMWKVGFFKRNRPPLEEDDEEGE
T1 sequence (P05106 27-788): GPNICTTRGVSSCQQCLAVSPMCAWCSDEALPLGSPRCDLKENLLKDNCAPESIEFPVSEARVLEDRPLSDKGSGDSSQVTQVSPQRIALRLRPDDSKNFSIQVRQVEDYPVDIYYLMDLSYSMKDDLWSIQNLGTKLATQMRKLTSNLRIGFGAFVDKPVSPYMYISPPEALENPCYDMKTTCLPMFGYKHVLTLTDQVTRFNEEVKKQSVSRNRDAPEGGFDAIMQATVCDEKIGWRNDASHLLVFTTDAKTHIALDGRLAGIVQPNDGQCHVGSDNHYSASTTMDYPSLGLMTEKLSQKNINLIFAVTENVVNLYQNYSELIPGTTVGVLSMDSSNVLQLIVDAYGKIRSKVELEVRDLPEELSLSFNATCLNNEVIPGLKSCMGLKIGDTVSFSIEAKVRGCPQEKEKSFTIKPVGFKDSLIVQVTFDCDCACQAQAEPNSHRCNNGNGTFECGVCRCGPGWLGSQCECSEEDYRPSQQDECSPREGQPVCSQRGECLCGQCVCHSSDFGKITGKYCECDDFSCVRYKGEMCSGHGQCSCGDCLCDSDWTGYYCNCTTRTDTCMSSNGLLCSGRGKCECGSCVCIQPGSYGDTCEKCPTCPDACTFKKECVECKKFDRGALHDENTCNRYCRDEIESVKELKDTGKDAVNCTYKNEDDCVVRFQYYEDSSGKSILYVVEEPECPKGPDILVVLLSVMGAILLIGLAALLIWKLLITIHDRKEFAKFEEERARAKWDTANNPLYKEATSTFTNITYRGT
T2 sequence (P08514 32-887 limits assumed): as the sequence (P08514 32-887 limits assumed) above
T2 sequence (P08514 891-1039 limits assumed): as the sequence (P08514 891-1039 limits assumed) above
T2 sequence (P05106 27-788): as the sequence (P05106 27-788) above

One experiment has as its target T1, human, citrated, platelet-rich plasma (Homo sapiens, UniProt P05106+P08514).
T1 construct: aggregating human, citrated, platelet-rich plasma; endogenous in cells; host or cells: human platelets in citrated platelet-rich plasma
Kind of experiment: Test (a): inhibition of ADP stimulated platelet aggregation (Born). The experiment is classed as cell-based. The following applies: ADP induced aggregation of human platelet-rich plasma. From the text: (i) aggregating human, citrated, platelet-rich plasma by addition of adenosine diphosphate so as to generate a dose-response curve;
(ii) generating a dose-response curve for ADP stimulated platelet aggregation in the presence of increasing amounts of a test compound (generally in the range 10-^5 M to 10-^10 M); and
(iii) calculating a pA2 value indicating potency of platelet aggregation inhibition for the test compound, averaged over several concentrations, from the calculated 50% response value for ADP aggregation in the presence and absence of the test compound.
Consider `O=C(O)COc1ccc(CCN2CCN(c3ccncc3)CC2)cc1` [Example 148, 4-[2-[4-(4-Pyridyl)piperazin-1-yl]ethyl]phenoxyacetate acid dihydrochloride], for which the “Test (a): pA2 value indicating potency of platelet aggregation inhibition” value came out at 7.3.
As for `O=C(O)CCCCCOc1ccc(Nc2ccncc2)cc1` [Example 188, 6-[4-(4-Pridylamino)phenoxy]hexanoic acid hydrochloride], the “Test (a): pA2 value indicating potency of platelet aggregation inhibition” value turned out to be 6.0.

Staying with this experiment, now noted: ADP induced aggregation of human platelet-rich plasma; read-out: Test (a): pA2 value indicating potency of platelet aggregation inhibition (converted).
With `Cc1cc(N2CCN(CC(=O)c3ccc(OCC(=O)O)cc3)CC2)ccn1` [Example 152, 4-[2-[4-(2-Methylpyrid-4-yl)piperazin-1-yl]acetyl]phenoxyacetic acid, dihydrobromide], the Kb is 0.1 µM.
Consider `COC(=O)COc1ccc(OCC2CCN(c3ccncc3)CC2)cc1` [Example 157, Methyl 4-[1-(4-pyridyl)piperidin-4-yl]methoxyphenoxyacetate], for which the Kb is 0.316 µM.
For the compound `COC(=O)CNC(=O)COc1ccc(C(=O)CN2CCN(c3ccncc3)CC2)cc1` [Example 146, Methyl N-[4-[2-[4-(4-pyridyl)piperazin-1-yl]acetyl]phenoxyacetyl]glycinate], the Kb was 7.94 µM.
Still for that read-out and setting: with `CN(C)c1ccncc1CCCOc1ccc(C[C@H](NC(=O)OCc2ccccc2)C(=O)O)cc1` [Example 225] the figure was 0.158 µM; with `CCOC(=O)CCCOc1ccc(N2CCN(c3ccncc3)CC2)cc1[N+](=O)[O-]` [Example 217, Ethyl 4-[2-nitro-4-[4-(4-pyridyl)piperazin-1-yl]phenoxy]butyrate], 0.316 µM; with `O=C(O)CC(COc1ccc(N2CCN(c3ccncc3)CC2)cc1)Cc1ccccc1` (racemic) [Example 220, RS 3-Benzyl-4-[4-[4-(4-pyridyl)piperazin-1-yl]phenoxy]-butyric acid], 3.16 µM.
Consider `CC(C)(C)OC(=O)NC(CCOc1ccc(N2CCN(c3ccncc3)CC2)cc1)C(=O)O` (racemic) [Example 212, RS 2-t-Butoxycarbonylamino-4-[4-[4-(4-pyridyl)piperazin-1-yl]phenoxy]butyric acid], for which the Kb is 0.0794 µM.
With `O=C(O)CCCOc1ccc(N2CCN(c3ccncc3)CC2=O)cc1` [Example 243, 4-[4-[4-(4-Pyridyl)piperazin-2-one-1-yl]phenoxy]butyric acid], the Kb was 0.01 µM.
As for `CCOC(=O)CCCOc1ccc(N2CCN(c3ccncc3)CC2)cc1C` [Example 209, Ethyl 4-[2-methyl-4-[4-(4-pyridyl)piperazin-1-yl]phenoxy]butyrate], the Kb was 0.2 µM.
As to `O=C(O)CCN(Cc1ccccc1)C(=O)c1ccc(N2CCN(c3ccncc3)CC2)cc1` [Example 236, 3-[4-[4-(4-Pyridyl)piperazin-1-yl]]-N-benzylbenzamidopropionic acid], the Kb is 0.794 µM.
Still for that read-out and setting: the same measure for `COC(=O)c1ccc(Oc2ccc(N3CCN(c4ccncc4)CC3)cc2)nc1` [Example 232, Methyl 6-[4-[4-(4-pyridyl)piperazin-1-yl]phenoxy]pyridine-3-carbxylate]: 31.6 µM.
Regarding `Cc1cc(N2CCN(c3ccncc3)CC2)ccc1OCCCC(=O)O` [Example 210, 4-[2-Methyl-4-[4-(4-pyridyl)piperazin-1-yl]phenoxy]-butyric acid], the Kb is 0.316 µM.
For `C=CCc1cc(N2CCN(c3ccncc3)CC2)ccc1OCCCC(=O)OCC` [Example 205, Ethyl 4-[2-allyl-4-[4-(4-pyridyl)piperazin-1-yl]phenoxy]butyrate], the Kb was 0.251 µM.
Consider `O=C(O)CN1CCC(Oc2ccc(N3CCN(c4ccncc4)CC3)cc2)CC1` [Example 238, 4-[4-[4-(Pyridyl)piperazin-1-yl]phenoxy]piperidineacetic acid], for which the Kb was 1.26 µM.
`O=C(O)CN1CCCC(Oc2ccc(N3CCN(c4ccncc4)CC3)cc2)C1` (stereo not drawn) [Example 239]: the Kb is 2.51 µM.
Take `CCOC(=O)CCCOc1ccc(N2CCN(c3ccncc3)CC2=O)cc1` [Example 242, Ethyl 4-[4-[4-(4-pyridyl)piperazin-2-one-1yl]phenoxy]butyrate]: the Kb was 0.316 µM.
For `Cc1cc(C(=O)CN2CCN(c3ccncc3)CC2=O)ccc1OCC(=O)O` [Example 241, [2-Methyl-4-[2-[4-(4-pyridyl)piperazin-2-one-1-yl]acetyl]]phenoxyacetic acid], the Kb is 0.00631 µM.
`O=C(O)CCC(=O)Nc1ccc(N2CCN(c3ccncc3)CC2)cc1` [Example 199, 4-Oxo-4-[4-[4-(4-pyridyl)piperazine-1-yl]phenyl]aminobutyric acid]: the Kb was 0.501 µM.
Turning to `CCCc1cc(C(=O)CN2CCN(c3ccncc3)CC2=O)ccc1OCC(=O)O` [Example 240, [2-Propyl-4-[2-[4-(4-pyridyl)piperazin-2-one-1-yl]acetyl]]phenoxyacetic acid], the Kb was 0.0251 µM.
Still for that read-out and setting: with `CCOC(=O)CNC(=O)COc1ccc(C(=O)CN2CCN(c3ccncc3)CC2=O)cc1` [Example 216, Ethyl N 4-[2-(4-(4-pyridyl)piperazin-2-one-1-yl)acetyl]phenoxyacetylglycinate] the figure was 2 µM; with `CCCc1cc(N2CCN(c3ccncc3)CC2)ccc1OCCCC(=O)O` [Example 208, 4-[2-n-Propyl4-[4-(4-pyridyl)piperazin-1-yl]phenoxy]butyric acid], 0.316 µM; with `CCCCS(=O)(=O)NC(CCOc1ccc(N2CCN(c3ccncc3)CC2)cc1)C(=O)OC` (racemic) [Example 218, RS Methyl 2-n-butanesulphonylamino-4-[4-[4-(4-pyridyl)piperazin-1-yl]phenoxy]butyrate], 1 µM.
For the compound `CCOC(=O)COc1ccc(C(=O)CN2CCN(c3ccncc3)CC2=O)cc1` [Example 215, Ethyl 4-[2-[4-(4-pyridyl)piperazin-2-one-1-yl]acetyl]phenoxyacetate], the Kb is 0.126 µM.
For `O=C(O)CC(COc1ccc(N2CCN(c3ccncc3)CC2)cc1)c1ccccc1` (racemic) [Example 221, RS 3-Phenyl-4-[4-[4-(4-pyridyl)piperazin-1-yl]phenoxy]-butyric acid], the Kb is 0.158 µM.
For `O=C(O)CCCc1ccc(CN2CCN(c3ccncc3)CC2)cc1` [Example 180, 4-[4-[4-(4-Pyridyl)piperazin-1yl]methylphenyl]butyric acid, dihydrochloride], the Kb was 3.16 µM.
As for `CCCCS(=O)(=O)NC(CCOc1ccc(N2CCN(c3ccncc3)CC2)cc1)C(=O)O` (racemic) [Example 219, RS 2-n-Butanesulphonylamino-4-[4-[4-(4-pyridyl)piperazin-1-yl]phenoxy]butyricacid], the Kb is 0.0316 µM.
Same read-out and setting: with `CCOC(=O)CCCCCOc1ccc(Nc2ccncc2)cc1` [Example 187, Ethyl 6-[4-(4-pyridylamino)phenoxy]hexanoate] the figure was 15.8 µM.

The next experiment has as its target T2, purified human platelet fibrinogen receptor (GPIIb/IIIa) (Homo sapiens, UniProt P05106+P08514).
T2 construct: is isolated from human platelet lysates; from tissue
Kind of experiment: Test (b): GPIIb/IIIa ELISA, inhibition of biotinylated fibrinogen binding. As to conditions: purified human platelet GPIIb/IIIa, ELISA. The method, then:
(i) Preparation of human platelet lysates.
Platelet rich plasma (PRP) is harvested by centrifugation (1000 rpm, 15 mins) of whole blood anticoaoulated with acid citrate dextrose (trisodium citrate 85 mM, citric acid 70 mM, d-glucose 110 mM) 1 part to 6 parts blood. Prostacyclin (PGI2, 1 μM) is added to the PRP before centrifugation (2400 pm, 15 mins) and the resulting pellet is resuspended in modified Tyrodes' solution (NaCl 130 mM, KCl 26 mM, NaHCO3 12 mM, NaH2 PO4 0.5 mM, MgCl2 1 mM, CaCl2 20 mM, Glucose 12 mM, HEPES 5 mM) containing bovine serum albumin 3.5 g/L, PGI2 1 μM and hirudin 0.5 U/ml. The platelet suspension is centrifuged (2400 rpm, 15 mins) and the resultant pellet resuspended in 500 μl of lysis buffer (octyl glucoside 50 mM, HEPES 10 mM, NaCl 150 mM, CaCl2 1 mM, MgCl2 1 mM, PMSF 1 mM, NEM 10 mM, leupeptin 0.1 mM), agitated at 4° C. for 15 minutes then centrifuged at 24000 rpm, 15 mins. The supernatant is stored at 4° C. and the pellet re-suspended in 500 μl of lysis buffer. The centrifugation process is repeated a further 3 tlimes, the pooled supernatants being stored at -70° C.
(ii) Receptor purification.
GP Ilb/Ila is isolated from human platelet lysates using a 2 ml peptide (KYGRGDS) coupled CNBr activated Sepharose affinity column. A 1.5 ml volume of platelet lysate is placed on the column and allowed to stand overnight at 4° C. Buffer (30 mls, octyl gluicoside 25 mM, HEPES 10 mM, NaCl 150 mM, CaCl2 1 mM, MgCl2 1 mM, PMSF 1 mM, NEM 10 mM, leupeptin 0.1 mM) is passed through the column and 2 ml fractions are collected throughout. GPIIb/IIIa is eluted with 12 mls of buffer containing HHLGGAKQAGDV (2 mg/ml, pH 7.5), the column is washed using 4 mls buffer and the remaining GPIIb/IIIa eluted using 12 mls buffer containing GRGDSPG (1 mg/ml pH 7.5). The column is finally washed using 20 mls of buffer and can be used for up to three such preparations. Fractions containing FGPIIb/IIIa are identified using gel electrophoresis and immunoblotting, pooled and stored at -70° C.
96 well microtitre plates are coated with 100 μl purified human platelet fibrinogen receptor (GPIIb/IIIa) diluted in coating buffer (Tris-HCl 20 mM, NaCl 150 mM, CaCl2 1 mM, pH 7.4) and left overnight at 4° C. The plates are washed using washing buffer (Tris-HCl 50 mM, NaCl 100 mM, CaCl2 2 mM, pH 7.4) and non-specific binding, blocked by the addition of 200 μl 2% BSA (2 hours, 30° C.). The plates are washed prior to incubation (2 hours, 30° C.) with 100 μl biotinylated fibrinogen ([…]) containing either vehicle or test compound. The plates are washed, incubated with streptavidin (5 μg/ml, 1 hour, ambient temperature), then washed again before the addition of 100 μl biotinylated horse radish peroxidase (0.1 μg/ml, 1 hour, ambient temperature). The plates are then washed and equal volumes of peroxidase substrate (3, 5, tetramethyl benzidine 0.4 g/l) and H2 O2 (0.02%) are mixed together immediately before addition of 150 μl to each well. Colour is allowed to develop for 10-15 mins before optical densities are read at 650 nm.
The concentration of compound required to cause 50% inhibition of biotinylated fibrinogen binding, is calculated and expressed as a pIC50 (-log(IC50)).
On the technique in general: ELISA stands for enzyme-linked immunosorbent assay.
Regarding `O=C(O)COc1ccc(CCN2CCN(c3ccncc3)CC2)cc1` [Example 148, 4-[2-[4-(4-Pyridyl)piperazin-1-yl]ethyl]phenoxyacetate acid dihydrochloride], the “Test (b): pIC50 (-log(IC50)), 50% inhibition of biotinylated fibrinogen binding to GPIIb/IIIa” value is reported as 7.5.

Staying with this experiment, now noted: purified human platelet GPIIb/IIIa, ELISA; read-out: Test (b): pIC50 (-log(IC50)), 50% inhibition of biotinylated fibrinogen binding to GPIIb/IIIa (converted).
For `Cc1cc(N2CCN(CC(=O)c3ccc(OCC(=O)O)cc3)CC2)ccn1` [Example 152, 4-[2-[4-(2-Methylpyrid-4-yl)piperazin-1-yl]acetyl]phenoxyacetic acid, dihydrobromide], the IC50 was 0.1 µM.
Regarding `COC(=O)COc1ccc(OCC2CCN(c3ccncc3)CC2)cc1` [Example 157, Methyl 4-[1-(4-pyridyl)piperidin-4-yl]methoxyphenoxyacetate], the IC50 was 0.0794 µM.
In the case of `COC(=O)CNC(=O)COc1ccc(C(=O)CN2CCN(c3ccncc3)CC2)cc1` [Example 146, Methyl N-[4-[2-[4-(4-pyridyl)piperazin-1-yl]acetyl]phenoxyacetyl]glycinate], the IC50 was 6.31 µM.

The values above are taken from patent US5750754A, “Heterocyclic compounds” (Zeneca Limited, priority 1993, dated 1998).
